Source: PubChem BioAssay AID248 (DTP/NCI, 2004)
Several values for one entry are separate records, joined by “and”; a condition that tells them apart may be missing. Equal entries are not always repeated. Inconclusive results and toxic doses are left out. Rule as the data show it: active = T/C of 150% or more; inactive = T/C below 125%.

Tested on: L1210 leukemia ip in BDF1 mice, survival T/C
Test: NCI In Vivo Anticancer Drug Screen. Data for tumor model L1210 Leukemia (intraperitoneal) in B6D2F1 (BDF1) mice
Conditions: endpoint: mean survival time, higher = longer survival
Summary of the method: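 Each compound was tested against a transplantable tumor grown in mice. The endpoint was survival, with treated animals benchmarked against vehicle controls as a simple ratio.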

[1] = dose: 100.0 mg/kg/injection, schedule: Q01DX009 (ip), vehicle: Klucel (hydroxypropylcellulose) (HPC)
[2] = dose: 200.0 mg/kg/injection, schedule: Q01DX009 (ip), vehicle: Klucel (hydroxypropylcellulose) (HPC)
[3] = dose: 100.0 mg/kg/injection, schedule: Q01DX001 (ip), vehicle: saline
[4] = dose: 200.0 mg/kg/injection, schedule: Q01DX001 (ip), vehicle: saline
[5] = dose: 12.5 mg/kg/injection, schedule: Q04DX003 (ip), vehicle: saline with Tween-80
[6] = dose: 50.0 mg/kg/injection, schedule: Q01DX001 (ip), vehicle: Klucel (hydroxypropylcellulose) (HPC)
[7] = dose: 100.0 mg/kg/injection, schedule: Q01DX001 (ip), vehicle: Klucel (hydroxypropylcellulose) (HPC)
[8] = dose: 200.0 mg/kg/injection, schedule: Q01DX001 (ip), vehicle: Klucel (hydroxypropylcellulose) (HPC)
[9] = dose: 400.0 mg/kg/injection, schedule: Q01DX001 (ip), vehicle: saline
[10] = dose: 100.0 mg/kg/injection, schedule: Q04DX002 (ip), vehicle: saline
[11] = dose: 200.0 mg/kg/injection, schedule: Q04DX002 (ip), vehicle: saline
[12] = dose: 400.0 mg/kg/injection, schedule: Q04DX002 (ip), vehicle: saline
[13] = dose: 100.0 mg/kg/injection, schedule: Q01DX009 (ip), vehicle: saline with Tween-80
[14] = dose: 200.0 mg/kg/injection, schedule: Q01DX009 (ip), vehicle: saline with Tween-80
[15] = dose: 12.5 mg/kg/injection, schedule: Q01DX009 (ip), vehicle: Klucel (hydroxypropylcellulose) (HPC)
[16] = dose: 25.0 mg/kg/injection, schedule: Q01DX009 (ip), vehicle: Klucel (hydroxypropylcellulose) (HPC)
[17] = dose: 50.0 mg/kg/injection, schedule: Q01DX009 (ip), vehicle: Klucel (hydroxypropylcellulose) (HPC)
[18] = dose: 100.0 mg/kg/injection, schedule: Q01DX001 (ip), vehicle: carboxymethylcellulose (CMC)
[19] = dose: 200.0 mg/kg/injection, schedule: Q01DX001 (ip), vehicle: carboxymethylcellulose (CMC)
[20] = dose: 400.0 mg/kg/injection, schedule: Q01DX001 (ip), vehicle: carboxymethylcellulose (CMC)
[21] = dose: 100.0 mg/kg/injection, schedule: Q04DX003 (ip), vehicle: Klucel (hydroxypropylcellulose) (HPC)
[22] = dose: 200.0 mg/kg/injection, schedule: Q04DX003 (ip), vehicle: Klucel (hydroxypropylcellulose) (HPC)

Measured: T/C

O=c1[nH]c2sccc2c(=O)n1OS(=O)(=O)c1ccccc1
inactive: [1] 105 % of control | [2] 122 % of control | dose: 400.0 mg/kg/injection, schedule: Q01DX009 (ip), vehicle: Klucel (hydroxypropylcellulose) (HPC) 93 % of control

NC1(C(=O)O)CC(O)(c2ccccc2)C(O)(c2ccccc2)C1 (centres undefined)
inactive: [3] 88 % of control | [4] 93 % of control

CC(=O)OC(C#N)c1ccco1 (centres undefined)
inactive: dose: 3.0 mg/kg/injection, schedule: Q01DX009 (ip), vehicle: saline with Tween-80 91 % of control | dose: 3.0 mg/kg/injection, schedule: Q04DX003 (ip), vehicle: saline with Tween-80 105 % of control | dose: 6.0 mg/kg/injection, schedule: Q01DX009 (ip), vehicle: saline with Tween-80 100 % of control | dose: 6.0 mg/kg/injection, schedule: Q04DX003 (ip), vehicle: saline with Tween-80 101 % of control | dose: 12.0 mg/kg/injection, schedule: Q01DX009 (ip), vehicle: saline with Tween-80 91 % of control | dose: 12.0 mg/kg/injection, schedule: Q04DX003 (ip), vehicle: saline with Tween-80 101 % of control | [5] 89 % of control

O=C(CCCN1CCC2(CC1)OC(=O)N(c1ccc(F)cc1)C2=O)c1cccs1
inactive: [6] 94 % of control | [7] 91 % of control | [8] 88 % of control

COc1ccc(C(=O)N2CCN(C)CC2)cc1OC
inactive: [3] 101 % of control | [4] 101 % of control | [9] 97 % of control

CC(=O)NC(CCC(N)=O)C(=O)O (centres undefined)
inactive: [10] 99 % of control | [11] 89 % of control | [12] 96 % of control

N/C(=N\Cl)C(Cl)(Cl)Cl
inactive: [5] 103 % of control | dose: 25.0 mg/kg/injection, schedule: Q04DX003 (ip), vehicle: saline with Tween-80 103 % of control | dose: 50.0 mg/kg/injection, schedule: Q04DX003 (ip), vehicle: saline with Tween-80 103 % of control

OCc1ccc(Cl)cc1
inactive: [13] 102 % of control | [14] 98 % of control | dose: 400.0 mg/kg/injection, schedule: Q01DX009 (ip), vehicle: saline with Tween-80 96 % of control

O=C(C1CC=CCC1)N1CCCC1 (centres undefined)
inactive: [10] 101 % of control | [11] 104 % of control | [12] 104 % of control

CS(=O)(=O)OCOS(C)(=O)=O
inactive: [15] 104 % of control | dose: 12.5 mg/kg/injection, schedule: Q01DX009 (ip), vehicle: saline 96 % of control | [16] 101 % of control | dose: 25.0 mg/kg/injection, schedule: Q01DX009 (ip), vehicle: saline 100 % of control | [17] 120 % of control | dose: 50.0 mg/kg/injection, schedule: Q04DX002 (ip), vehicle: saline 119 % of control

COc1ccc(NC(=O)Nc2cccc(C(=O)O)c2)c(OC)c1
inactive: dose: 100.0 mg/kg/injection, schedule: Q04DX002 (ip), vehicle: Klucel (hydroxypropylcellulose) (HPC) 101 % of control | dose: 200.0 mg/kg/injection, schedule: Q04DX002 (ip), vehicle: Klucel (hydroxypropylcellulose) (HPC) 104 % of control | dose: 400.0 mg/kg/injection, schedule: Q04DX002 (ip), vehicle: Klucel (hydroxypropylcellulose) (HPC) 97 % of control

Cc1ccn(-c2cc(NS(=O)(=O)c3ccccc3)c3ccccc3c2NS(=O)(=O)c2ccccc2)c(=O)c1
inactive: [6] 107 % of control | [7] 94 % of control | [8] 97 % of control

CC(=O)OCC(COC(C)=O)OC(C)=O
inactive: dose: 100.0 mg/kg/injection, schedule: Q04DX002 (ip), vehicle: other 98 % of control | dose: 200.0 mg/kg/injection, schedule: Q04DX002 (ip), vehicle: other 98 % of control | dose: 400.0 mg/kg/injection, schedule: Q04DX002 (ip), vehicle: other 103 % of control

CC(=O)N(C)c1ccc(/C=C2\C=Cc3ccccc32)cc1
inactive: dose: 50.0 mg/kg/injection, schedule: Q01DX001 (ip), vehicle: carboxymethylcellulose (CMC) 96 % of control | [18] 98 % of control | [19] 96 % of control | [20] 96 % of control

Cc1ccc(S(=O)(=O)Nc2ccc(C(=O)O)c(Cl)c2)cc1
inactive: dose: 100.0 mg/kg/injection, schedule: Q04DX003 (ip), vehicle: saline with Tween-80 108 % of control | dose: 200.0 mg/kg/injection, schedule: Q04DX003 (ip), vehicle: saline with Tween-80 92 % of control | dose: 400.0 mg/kg/injection, schedule: Q04DX003 (ip), vehicle: saline with Tween-80 104 % of control

CCN1C(=O)CC(=O)N(CC)C1=S
inactive: [17] 103 % of control | [1] 101 % of control | [21] 94 % of control | [2] 97 % of control | [22] 89 % of control

Nc1ccc(OCCNS(=O)(=O)c2cccc(S(=O)(=O)F)c2)c(Cl)c1
inactive: dose: 50.0 mg/kg/injection, schedule: Q01DX009 (ip), vehicle: saline 97 % of control | dose: 100.0 mg/kg/injection, schedule: Q01DX009 (ip), vehicle: saline 102 % of control | dose: 100.0 mg/kg/injection, schedule: Q04DX003 (ip), vehicle: saline 97 % of control | dose: 200.0 mg/kg/injection, schedule: Q04DX003 (ip), vehicle: saline 97 % of control

CCCCCCCCCCCCCC(=O)N(CCC)CCC
inactive: [18] 96 % of control | dose: 100.0 mg/kg/injection, schedule: Q01DX009 (ip), vehicle: carboxymethylcellulose (CMC) 94 % of control and 110 % of control | dose: 100.0 mg/kg/injection, schedule: Q04DX003 (ip), vehicle: carboxymethylcellulose (CMC) 95 % of control | [19] 93 % of control | dose: 200.0 mg/kg/injection, schedule: Q01DX009 (ip), vehicle: carboxymethylcellulose (CMC) 98 % of control and 103 % of control | dose: 200.0 mg/kg/injection, schedule: Q04DX003 (ip), vehicle: carboxymethylcellulose (CMC) 95 % of control | [20] 91 % of control | dose: 400.0 mg/kg/injection, schedule: Q04DX003 (ip), vehicle: carboxymethylcellulose (CMC) 93 % of control

ClCCCCOCC1CCCO1 (centres undefined)
inactive: [13] 100 % of control | [14] 107 % of control

[O-][n+]1ccccc1SSc1cccc[n+]1[O-]
inactive: dose: 6.25 mg/kg/injection, schedule: Q01DX009 (ip), vehicle: Klucel (hydroxypropylcellulose) (HPC) 99 % of control | [15] 96 % of control and 98 % of control | [16] 88 % of control

CC1CC(Cc2cccc3ccccc23)C(=O)O1 (centres undefined)
inactive: dose: 37.5 mg/kg/injection, schedule: Q01DX009 (ip), vehicle: saline 102 % of control | dose: 75.0 mg/kg/injection, schedule: Q01DX001 (ip), vehicle: saline 97 % of control | dose: 75.0 mg/kg/injection, schedule: Q01DX009 (ip), vehicle: saline 98 % of control | dose: 75.0 mg/kg/injection, schedule: Q04DX003 (ip), vehicle: saline 96 % of control | dose: 150.0 mg/kg/injection, schedule: Q01DX001 (ip), vehicle: saline 97 % of control | dose: 150.0 mg/kg/injection, schedule: Q01DX009 (ip), vehicle: saline 96 % of control | dose: 150.0 mg/kg/injection, schedule: Q04DX003 (ip), vehicle: saline 94 % of control | dose: 300.0 mg/kg/injection, schedule: Q01DX001 (ip), vehicle: saline 98 % of control | dose: 300.0 mg/kg/injection, schedule: Q04DX003 (ip), vehicle: saline 94 % of control

CC(=O)Oc1c(C)cccc1C(=O)O
inactive: [21] 92 % of control | [22] 103 % of control | dose: 400.0 mg/kg/injection, schedule: Q04DX003 (ip), vehicle: Klucel (hydroxypropylcellulose) (HPC) 88 % of control

O=C(Cc1ccc([N+](=O)[O-])cc1)NCCc1ccc2c(c1)OCO2
inactive: [3] 96 % of control | [4] 102 % of control | [9] 100 % of control
